Assay [1] relates to SW1990 pancreatic adenocarcinoma cells [homozygous G12D]. The assay can be described thus: Cancer cell line proliferation (CellTiter-Glo), SW1990. Type of assay: cell-based. Conditions: Homo sapiens, 72 hr treatment, read-out: SW1990 CTG (EC50). In short, it runs like this: (§1)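 Cells at 4,000/well grown 72 hr, then treated with 3-fold serial dilutions (20 μM to 1.02 nM, 0.5% DMSO final) for 72 hr at 37° C/5% CO2. Viability by CellTiter-Glo luminescence; EC50 values calculated.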
(In general: Cellular ATP, detected with luciferase, serves as a proxy for viable cell number.)

Assay [2] concerns ASPC1 pancreatic adenocarcinoma cells [homozygous G12D]. The assay can be described thus: Cancer cell line proliferation (CellTiter-Glo), ASPC1. The settings on record: Homo sapiens, ASPC1, 72 h, 72 hr treatment, read-out: ASPC-1 CTG (EC50). It counts as cell-based. The method in brief: as §1
The test system of assay [3] is A-427 lung carcinoma cells [heterozygous G12D]. The assay can be described thus: Cancer cell line proliferation (CellTiter-Glo), A-427. Conditions: Homo sapiens, A-427 cells, 72 hr treatment, read-out: A427 CTG (EC50). Type of assay: cell-based. The method in brief:
as §1

The target of assay [4] is T1, KRAS(G12D)/SOS1 (Homo sapiens, UniProt P01116, G12D).
T1 construct: purchased Cisbio 63ADK000CB17PEH
Kind of assay: KRAS(G12D)/SOS1 homogeneous time-resolved fluorescence (HTRF) assay. It counts as binding. Conditions: absence of GTP; 4° C., 3 hr. The method in brief:
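Disruption of the KRAS(G12D)/SOS1 pairing, in the absence of GTP, was read by time-resolved FRET after a 3 hr sealed incubation at 4 °C. Test compounds spanned 20 µM down to 1.02 nM in 3-fold steps. IC50 values correspond to half-maximal inhibition.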
(TR-FRET usually uses a lanthanide donor and a delayed reading to cut background.)

In assay [5] the test system is AGS gastric carcinoma cells [heterozygous G12D]. Kind of assay: Cancer cell line proliferation (CellTiter-Glo), AGS. Conditions: Homo sapiens, 72 hr treatment, read-out: AGS CTG (EC50). It counts as cell-based. In short, it runs like this:
as §1

A value given as a limit tells only on which side of the number the result lay.

T1 sequence (P01116 1-188 isoform P01116-2 G12D): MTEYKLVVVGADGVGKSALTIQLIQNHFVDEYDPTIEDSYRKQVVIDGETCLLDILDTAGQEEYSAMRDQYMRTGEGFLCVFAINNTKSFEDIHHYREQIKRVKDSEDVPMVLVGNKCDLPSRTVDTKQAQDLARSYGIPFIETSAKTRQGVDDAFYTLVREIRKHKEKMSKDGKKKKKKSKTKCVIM

Consider `C#Cc1cccc2cc(O)cc(-c3ncc4c(N5CC6CCC(C5)N6)nc(OCC5(CN6CCN(CC7CCN(Cc8ccc9c(c8)CN(C(=O)c8cc(C(C)C)c(O)cc8OC)C9)CC7)CC6)CC5)nc4c3F)c12` [Compound 152], for which the EC50 (usually the concentration needed to bring the measured effect to its halfway point) is less than 100 nM in assay [1], 100 to 1000 nM in assay [2], 100 to 1000 nM in assay [3] and less than 100 nM in assay [5]. For the same molecule, in assay [4], the IC50 (in general, the concentration that inhibits the measured activity by half) was less than 100 nM.

`C#Cc1c(F)ccc2cc(O)cc(-c3ncc4c(N5CC6CCC(C5)N6)nc(OCC5(CN6CCC(C7CCN(Cc8ccc9c(c8)CN(C(=O)c8cc(C(C)C)c(O)cc8O)C9)CC7)CC6)CC5)nc4c3F)c12` [Compound 163]: the EC50 was less than 100 nM in assay [1], 100 to 1000 nM in assay [2], 100 to 1000 nM in assay [3] and less than 100 nM in assay [5]. The IC50 in assay [4] was less than 100 nM.

Source of the values: patent US20260070929A1, “METHODS AND COMPOSITIONS FOR MODULATING KRAS(G12D)” (Ranok Therapeutics (Hangzhou) Co. LTD., priority 2022, published 2026).
